Several values for one entry are separate records, joined by “and”; a condition that tells them apart may be missing. Equal entries are not always repeated.
Legend:
anti-HAV-positive sera = assay: EIA for anti-HAV: synthetic peptides adsorbed to wells, reacted with anti-HAV-positive acute sera; format: binding, human; conditions: for Reactivity with acute sera (reactive/tested): experiment 1: sera 1:100, anti-human IgG-HRP, cutoff P/N 3.0; for Reactivity with acute sera (percent of sera reactive): experiment 1: sera 1:100, cutoff P/N 3.0; for P/N for acute sera (mean) / P/N for acute sera (range, in parentheses): OD493 positive/negative ratio of reactive sera
Description: (§1) All anti-HAV-positive and anti-HAV-negative sera were randomly selected from a collection reposited at the Centers for Disease Control and Prevention, Atlanta, Ga. Serum specimens were collected from anti-HAV-positive patients with acute liver disease. Anti-HAV-negative serum specimens were collected from normal blood donors. All sera were initially tested by commercially available kit for the presence of anti-HAV activity (HAVAB and HAVAB-M, Abbott Laboratories, Abbott Park, Ill.)
(§2) Synthetic peptides (110 ml) at a concentration of 10 mg/ml in 0.1 M phosphate-buffered saline (PBS), pH 7.5, were adsorbed to microtiter wells (Immulon II, Dynatech Laboratories, Inc.) at room temperature for 12 h. Sera were diluted in PBS containing 0.1% Tween 20 and 10% normal goat serum (PBS-T) and 100 ml were added to each well, incubated for 60 min at 37E C, and washed with PBS containing Tween-20. […] Two different cutoffs were established for experiments 1 and 2. In experiment 1, the cutoff, expressed as a P/N ratio and equal to 3.0, was statistically established as the mean of negative controls plus at least 3.5 standard deviations (SD) above the mean, where P represents the optical density value at 493 nm (OD493) of anti-HAV-positive specimens and N represents the optical density value of negative controls. In experiment 2, a different cutoff was used to ensure statistical reliability and accurate interpretation of positive results. In this case, in addition to anti-HAV-negative sera, two irrelevant synthetic peptides were used as supplemental negative controls to determine the degree of nonspecific binding of anti-HAV sera to synthetic peptides. One cutoff, expressed as a P/N ratio and equal to 3.0, corresponded to the mean of negative serum controls plus at least 3.5 SD above the mean. A second cutoff was also expressed as a P/N ratio, where P represents the optical density value at 493 nm (OD493) for HAV peptides immunoreacting with anti-HAV-positive specimens and N represents the optical density value obtained with the irrelevant peptides. The second cutoff was equal 2.0 and corresponded to the mean of OD values obtained with the irrelevant peptides plus at least 3.5 SD above the mean. Synthetic peptides were considered immunoreactive with anti-HAV serum specimens only when both cutoffs were satisfied.

anti-HAV-negative sera = assay: EIA for anti-HAV: synthetic peptides reacted with anti-HAV-negative sera; format: binding, human; conditions: experiment 1: sera 1:100, cutoff P/N 3.0
Description: as §1, §2

Row | Sequence | Reactivity with acute sera (reactive/tested) (anti-HAV-positive sera) | Reactivity with acute sera (percent of sera reactive) (anti-HAV-positive sera) [%] | P/N for acute sera (mean) (anti-HAV-positive sera; experiment 1) | P/N for acute sera (range, in parentheses) (anti-HAV-positive sera; experiment 1) | Reactivity with negative sera (reactive/tested) (anti-HAV-negative sera) | immunoreactivity with anti-HAV-positive sera (in words) (anti-HAV-positive sera) | P/N for acute sera (individual values) (anti-HAV-positive sera; experiment 1, single sera listed with semicolon) | percent of (IgM) anti-HAV-positive sera immunoreactive with peptide (anti-HAV-positive sera) [%]
1 | GLDHILSLADIEEEQMIQSV [YK-1206] | 8/42 | 19.1 | 9.46 | (3.01-27.07) | 0/46 | – | – | –
2 | GLVRKNLVQFGVGEKNGCVR [YK-1376] | 3/41 | 7.3 | 6.71 | (3.8-12.77) | 0/27 | – | – | –
3 | GQKIVDEFKKLGMTATSADK [YK-1428] | 1/41 | 2.4 | 7.28 | – | 0/27 | – | – | –
4 | HFKDPQYPVWELTIRVWSEL [YK-1222] | 2/41 | 4.9 | 4.29 | – | 0/46 | – | – | –
5 | HFLCTFTFNSNNKEYTFPIT [YK-1279] | 7/41 | 17.1 | 3.43 | (3.11-3.67) | 1/46 | – | – | –
6 | HGVTKPKQVIKLDADPVESQ [YK-1374] | 18/41 | 43.9 | 10.57 | (3.28-29.07) | 0/27 | very broad and strong antigenic reactivity | – | –
7 | HTYARFGIEIQVQINPTPFQ [YK-1216] | 23/41 | 56.1 | 5.3 | (3.42-10.79) | 4/46 | – | – | –
8 | IKVIPVDPYFFQMTNTNPDQ [YK-1244] | 6/41 | 14.6 | 4.2 | (3.55-5.2) | 0/46 | – | – | –
9 | INNVNLYYVFSKIFGKSPVF [YK-1424] | 3/41 | 7.3 | 6.69 | (3.48-10.83) | 0/27 | – | – | –
10 | INPTPFQQGGLICAMVPGDQ [YK-1217] | 4/41 | 9.8 | 4.03 | (3.94-4.12) | 0/46 | – | – | –
11 | ITTIEDPVLAKKVPETFPEL [YK-1271] | 4/41 | 9.8 | 4.97 | (3.33-7.76) | 1/46 | – | – | –
12 | KCITALASICQMFCFWRGDL [YK-1247] | 9/46 | 19.6 | 3.96 | (3.06-4.49) | 0/48 | – | – | –
13 | KINLADRMLGLSGVQEIKEQ [YK-1331] | 13/48 | 27.1 | 5.71 | (3.71-10.3) | 0/51 | – | – | –
14 | KNDGTTVDLTVDQAWRGKGE [YK-1389] | 3/41 | 7.3 | 10.33 | (5.53-18.26) | 0/27 | – | – | –
15 | KNPHNDMLNVNLAKTNDAIK [YK-1363] | 5/41 | 12.2 | 5.96 | (5.31-6.33) | 0/41 | – | – | –
16 | KTMIRFGDVGLDLDFSAFDA [YK-1418] | 6/41 | 14.6 | 4.5 | (3.35-6.21) | 1/27 | – | – | –
17 | KVNFPHGMLDLEEIAANSKD [YK-1327] | 15/48 | 31.3 | 6.16 | (3.28-9.76) | 1/51 | – | – | –
18 | LAKTNDAIKDMSCVDLIMDG [YK-1364] | 4/41 | 9.8 | 4.9 | (3.5-6.18) | 1/41 | – | – | –
19 | LDENGLLLGVHPRLAQRILF [YK-1407] | 2/41 | 4.9 | – | – | 0/27 | – | 3.43 and 3.98 | –
20 | LGMTATSADKNVPQLKPVSE [YK-1429] | 5/41 | 12.2 | 10.25 | (4.92-27.38) | 0/27 | – | – | –
21 | LGSINQAMVTRCEPVVCYLY [YK-1347] | 13/48 | 27.1 | 4.16 | (3.18-6.2) | 2/51 | – | – | 27.1
22 | LNMASLEEKGRHFSSPFIIA [YK-1357] | 4/48 | 8.3 | 4.49 | (4.06-4.85) | 1/51 | – | – | –

From US6838237B2, “Antigenically reactive regions of the hepatitis a virus polyprotein” (The United States of America as represented by the …, priority 1996, dated 2005)
